One compound from ChEMBL document CHEMBL3588855, “Different structures of the two peroxisome proliferator-activated receptor gamma (PPARγ) ligand-binding domains in homodimeric complex with partial agonist, but not full agonist” (Bioorg Med Chem Lett, 2015) can be followed below.

Test [1] concerns the target T1, Peroxisome proliferator-activated receptor gamma (Homo sapiens) (UniProt P37231).
T1 sequence (whole entry): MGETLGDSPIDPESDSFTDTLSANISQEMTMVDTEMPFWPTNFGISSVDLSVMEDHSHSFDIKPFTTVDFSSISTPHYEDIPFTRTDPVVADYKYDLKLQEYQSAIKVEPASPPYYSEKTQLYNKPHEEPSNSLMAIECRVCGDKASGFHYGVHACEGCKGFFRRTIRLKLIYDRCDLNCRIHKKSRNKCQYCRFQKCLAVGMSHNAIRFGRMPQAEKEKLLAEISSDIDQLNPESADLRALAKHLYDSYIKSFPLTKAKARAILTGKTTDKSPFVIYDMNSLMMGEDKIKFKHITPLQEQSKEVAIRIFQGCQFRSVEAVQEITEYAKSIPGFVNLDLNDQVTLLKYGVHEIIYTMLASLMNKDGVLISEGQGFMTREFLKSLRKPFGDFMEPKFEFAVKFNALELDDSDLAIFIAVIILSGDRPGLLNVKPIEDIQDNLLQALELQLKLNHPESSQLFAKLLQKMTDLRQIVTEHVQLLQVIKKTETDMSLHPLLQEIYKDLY
The test can be described thus: Agonist activity at human GAL4-tagged-PPARgamma transfected in monkey COS1 cells by transient transfection/luciferase reporter gene assay relative to 30 uM pioglitazone. Type of test: cell-based. The conditions noted are these: COS-1.

Test [2] deals with T1, Peroxisome proliferator-activated receptor gamma (Homo sapiens). Put plainly: Agonist activity at human GAL4-tagged-PPARgamma transfected in monkey COS1 cells by transient transfection/luciferase reporter gene assay relative to 10 uM rosiglitazone. Type of test: cell-based. The conditions noted are these: COS-1. (In general: A reporter such as luciferase makes a cellular process visible.)

For the compound `CCCOc1ccc(C(=O)NS(=O)(=O)c2ccccc2)cc1CNC(=O)c1ccc(-c2ncccn2)cc1`, the %max in test [1] and in test [2] was 50% throughout.
